Source: patent US20240122180A1, “FUNGICIDAL HALOMETHYL KETONES AND HYDRATES AND THEIR MIXTURES” (FMC Corporation, priority 2020, published 2024)

Legend:
[1] = system: Puccinia recondita f. sp. tritici (the causal agent of wheat leaf rust); assay: Test B: preventive spray on wheat seedlings, disease rating (100 = 100% control; * 50 ppm, ** 10 ppm, *** 250 ppm); assay type: in vivo; conditions: 100 = 100% disease control
Procedure, shortened: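 Preventive test: Puccinia recondita f. sp. tritici spores were inoculated one day after run-off spraying of wheat seedlings with test suspension (acetone/water 50/50, 250 ppm PEG400). After 24 h in saturated air and 6 days in a growth chamber, both at 20° C, control was scored 0–100 versus untreated plants.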

[2] = system: Phakopsora pachyrhizi (the causal agent of Asian soybean rust); assay: Test A: preventive spray on soybean seedlings, visual disease rating (100 = 100% control; * 50 ppm, ** 10 ppm, *** 250 ppm); assay type: in vivo; conditions: 100 = 100% disease control
Procedure, shortened: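 Preventive test: one day after spraying compound (acetone/water suspension, 250 ppm PEG400), seedlings received rust spore inoculum, 24 h in saturated air then 8 days in growth chamber, both at 22 °C. Disease control scored visually, 100 = complete, 0 = none, relative to untreated controls.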

[3] = 10 ppm test suspension, 0 = no control
[4] = 10 ppm test suspension, wheat seedlings
[5] = 10 ppm test suspension, soybean seedlings
[6] = 50 ppm test suspension, 0 = no control
[7] = 50 ppm test suspension, wheat seedlings
[8] = 50 ppm test suspension, soybean seedlings

SMILES: CCO/C(=C\Oc1ccc(Cn2ccc(C(=O)OCCCCl)n2)cc1)C(F)(F)F [compound 362]
- Test B disease control rating [1, 3]: 0%
- Test A disease control rating [2, 3]: 100%

SMILES: CCOC(=O)c1cn(Cc2cccc(O/C=C(\OCC)C(F)(F)F)c2)cn1 [compound 446]
- pest or weed control at 10 ppm ([1]; Puccinia recondita, 10 ppm test suspension, 0 = no control): 0%
- pest or weed control at 10 ppm ([2]; Phakopsora pachyrhizi, 10 ppm test suspension, 0 = no control): 98%

SMILES: C#CCOC(=O)c1ccn(Cc2ccc(O/C=C(\OCC)C(F)(F)F)cc2)n1 [compound 325]
- Test B disease control rating [1, 3]: 0%
- Test A disease control rating [2, 3]: 100%

SMILES: CCO/C(=C\Oc1cccc(Cn2cc(C(=O)OCCCOC)cn2)c1)C(F)(F)F [compound 351]
- Test B disease control rating [1, 3]: 0%
- Test A disease control rating [2, 3]: 100%

SMILES: CCOC(=O)c1csc(Cc2cccc(O/C=C(\OCC)C(F)(F)F)c2)n1 [compound 370]
- Test B disease control rating [1, 3]: 0%
- Test A disease control rating [2, 3]: 0%

SMILES: COC(=O)c1cnn(Cc2ccc(OCC(O)(O)C(F)(F)F)cc2)c1 [compound 37]
- Test B disease control rating [1, 4]: 86%
- Test A disease control rating [2, 5]: 99%

SMILES: CCOC(=O)c1cnn(Cc2ccc(O/C=C(\OCCO)C(F)(F)F)cc2)c1 [compound 145]
- Test B disease control rating [1, 4]: 0%
- Test A disease control rating [2, 5]: 82%

SMILES: CCNC(=O)N1CC(c2ccc(OCC3(C(F)(F)F)OCCO3)cc2)C1 [compound 411]
- Test B disease control rating [1, 6]: 0%
- Test A disease control rating [2, 6]: 87%

SMILES: CON(Cc1ccc(OCC2(C(F)(F)F)OCCO2)cc1)C(=O)C(C)C [compound 235]
- Test B disease control rating [1, 4]: 0%
- Test A disease control rating [2, 5]: 97%

SMILES: CCOC(=O)c1cnn(Cc2ccc(OCC3(C(F)(F)F)OC(=O)CS3)cc2)c1 (stereo not shown) [compound 20]
- Test B disease control rating [1, 4]: 86%
- Test A disease control rating [2, 5]: 98%

SMILES: O=C(OCc1cccnc1)c1cnn(Cc2ccc(OCC3(C(F)(F)F)OCCO3)cc2)c1 [compound 200]
- Test B disease control rating [1, 4]: 0%
- Test A disease control rating [2, 5]: 100%

SMILES: CCOC(=COc1ccc(CSC(C)=O)cc1)C(F)(F)F [compound 445]
- Test B disease control rating [1, 6]: 0%
- Test A disease control rating [2, 6]: 38%

SMILES: C=CC(F)(F)OC(=O)c1cnn(Cc2ccc(OCC(O)(O)C(F)(F)F)cc2)c1 [compound 38]
- Test B disease control rating [1, 4]: 89%
- Test A disease control rating [2, 5]: 97%

SMILES: CCO/C(=C\Oc1cccc(Cn2cc(C(=O)OCCCCl)cn2)c1)C(F)(F)F [compound 338]
- Test B disease control rating [1, 3]: 0%
- Test A disease control rating [2, 3]: 100%

SMILES: O=C(OCCCCl)c1cnn(Cc2ccc(OCC3(C(F)(F)F)OCCO3)cc2)c1 [compound 161]
- Test B disease control rating [1, 4]: 0%
- Test A disease control rating [2, 5]: 100%

SMILES: CCS(=O)(=O)Cc1ccc(OCC2(C(F)(F)F)OCCO2)cc1 [compound 23]
- Test B disease control rating [1, 4]: 19%
- Test A disease control rating [2, 5]: 0%

SMILES: CCOC(=O)c1cnn(Cc2ccc(O/C=C(\OCC#N)C(F)(F)F)cc2)c1 [compound 400]
- Test B disease control rating [1, 6]: 0%
- Test A disease control rating [2, 6]: 100%

SMILES: CCOC(=COc1ccc(Cc2ccnc(S(C)(=O)=O)n2)cc1)C(F)(F)F [compound 307]
- Test B disease control rating [1, 6]: 0%
- Test A disease control rating [2, 6]: 0%

SMILES: COC(=O)c1ccc(OCC2(C(F)(F)F)OCCO2)cc1 [compound 189]
- Test B disease control rating [1, 4]: 0%
- Test A disease control rating [2, 5]: 0%

SMILES: O=C(OCC(F)(F)C(F)(F)F)c1cnn(Cc2ccc(OCC(O)(O)C(F)(F)F)cc2)c1 [compound 46]
- Test B disease control rating [1, 4]: 85%
- Test A disease control rating [2, 5]: 64%

SMILES: CCO/C(=C\Oc1ccc(CS(=O)(=O)CC)cc1)C(F)(F)F [compound 62]
- Test B disease control rating [1, 4]: 0%
- Test A disease control rating [2, 5]: 0%

SMILES: CCO/C(=C\Oc1cccc(Cn2cc(C(=O)O)cn2)c1)C(F)(F)F [compound 323]
- Test B disease control rating [1, 6]: 0%
- Test A disease control rating [2, 6]: 100%

SMILES: CCO/C(=C\Oc1ccc(Cn2cnc(C#N)n2)cc1)C(F)(F)F [compound 82]
- Test B disease control rating [1, 4]: 0%
- Test A disease control rating [2, 5]: 97%

SMILES: CCOC(=COc1ccc(CN2CCC(OC)CC2)cc1)C(F)(F)F [compound 312]
- Test B disease control rating [1, 3]: 0%
- Test A disease control rating [2, 3]: 0%

SMILES: CCOC(=O)C1CCN(Cc2ccc(O/C=C(\OCC)C(F)(F)F)cc2)CC1 [compound 268]
- Test B disease control rating [1, 3]: 0%
- Test A disease control rating [2, 3]: 99%

SMILES: CCOC(=O)c1cnn(C(C)c2cccc(O/C=C(\OCC)C(F)(F)F)c2)c1 (stereo not shown) [compound 304]
- Test B disease control rating [1, 6]: 0%
- Test A disease control rating [2, 6]: 96%

SMILES: CCO/C(=C\Oc1ccc(Cn2ccc(C(=O)OCC(C)C)n2)cc1)C(F)(F)F [compound 357]
- Test B disease control rating [1, 3]: 9%
- Test A disease control rating [2, 3]: 100%

SMILES: CCO/C(=C\Oc1ccc(CN)cc1)C(F)(F)F [compound 110]
- Test B disease control rating [1, 7]: 0%
- Test A disease control rating [2, 8]: 79%

SMILES: CCO/C(=C\Oc1ccc(Cc2nc(C(=O)NCC3CC3)cs2)cc1)C(F)(F)F [compound 130]
- Test B disease control rating [1, 4]: 0%
- Test A disease control rating [2, 5]: 100%

SMILES: N#CCc1ccc(OCC2(C(F)(F)F)OCCO2)cc1 [compound 239]
- Test B disease control rating [1, 4]: 0%
- Test A disease control rating [2, 5]: 0%

SMILES: CCCCOC(=O)c1ccn(Cc2ccc(O/C=C(\OCC)C(F)(F)F)cc2)n1 [compound 356]
- Test B disease control rating [1, 3]: 0%
- Test A disease control rating [2, 3]: 100%

SMILES: CCOC(=O)c1ccn(Cc2cc(C)cc(O/C=C(\OCC)C(F)(F)F)c2)n1 [compound 405]
- Test B disease control rating [1, 6]: 0%
- Test A disease control rating [2, 6]: 0%

SMILES: Cc1ccc(OCC2(C(F)(F)F)OCCO2)c(F)c1 [compound 442]
- pest or weed control at 50 ppm ([1]; Puccinia recondita, 50 ppm test suspension, 0 = no control): 0%
- pest or weed control at 50 ppm ([2]; Phakopsora pachyrhizi, 50 ppm test suspension, 0 = no control): 0%

SMILES: CCOC(=O)c1ccn(Cc2ccc(OCC3(C(F)(F)F)OCCO3)cc2)n1 [compound 232]
- Test B disease control rating [1, 4]: 0%
- Test A disease control rating [2, 5]: 98%

SMILES: CCOC(=O)c1cn(Cc2ccc(O/C=C(\OCC)C(F)(F)F)cc2)nn1 [compound 121]
- Test B disease control rating [1, 4]: 0%
- Test A disease control rating [2, 5]: 100%

SMILES: CCOC(=O)c1cnn(Cc2ccc(OCC(O)(NO)C(F)(F)F)cc2)c1 (stereo not shown) [compound 10]
- Test B disease control rating [1, 4]: 86%
- Test A disease control rating [2, 5]: 100%

SMILES: CCOC(=O)c1cnn(C(C)c2ccc(O/C=C(\OCC)C(F)(F)F)cc2)c1 (stereo not shown) [compound 267]
- Test B disease control rating [1, 3]: 0%
- Test A disease control rating [2, 3]: 94%

SMILES: C=C(C)COC(=O)c1ccn(Cc2ccc(O/C=C(\OCC)C(F)(F)F)cc2)n1 [compound 358]
- Test B disease control rating [1, 3]: 0%
- Test A disease control rating [2, 3]: 100%

SMILES: CC#CCOC(=O)c1ccn(Cc2ccc(O/C=C(\OCC)C(F)(F)F)cc2)n1 [compound 293]
- Test B disease control rating [1, 3]: 0%
- Test A disease control rating [2, 3]: 100%

SMILES: CCOC(=O)c1cnn(Cc2ccc(O/C=C(\OS(=O)(=O)C(F)(F)F)C(F)(F)F)cc2)c1 [compound 422]
- Test B disease control rating [1, 6]: 84%
- Test A disease control rating [2, 6]: 100%

SMILES: CCOC(=O)c1csc(Cc2ccc(OCC(O)(O)C(F)(F)F)cc2)n1 [Compound 136]
- Test B disease control rating [1, 4]: 83%
- Test A disease control rating [2, 5]: 98%

SMILES: CCO/C(=C\Oc1ccc(C(C)=O)cc1)C(F)(F)F [compound 79]
- Test B disease control rating [1, 7]: 0%
- Test A disease control rating [2, 8]: 0%

SMILES: CCOC(=COc1ccc([N+](=O)[O-])cc1)C(F)(F)F [compound 279]
- Test B disease control rating [1, 6]: 0%
- Test A disease control rating [2, 6]: 0%

SMILES: CCO/C(=C\Oc1ccc(C(=O)OC(C)C)cc1)C(F)(F)F [compound 73]
- Test B disease control rating [1, 4]: 0%
- Test A disease control rating [2, 5]: 0%

SMILES: CCO/C(=C\Oc1ccc(Cn2cncc2C(=O)OC)cc1)C(F)(F)F [compound 85]
- Test B disease control rating [1, 4]: 0%
- Test A disease control rating [2, 5]: 89%

SMILES: CCOC(=O)c1cnn(C(C)c2ccc(OCC(O)(O)C(F)(F)F)cc2)c1 (stereo not shown) [compound 35]
- Test B disease control rating [1, 4]: 32%
- Test A disease control rating [2, 5]: 99%

SMILES: CCOC(=O)Cc1nnnn1Cc1ccc(O/C=C(\OCC)C(F)(F)F)cc1 [compound 84]
- Test B disease control rating [1, 4]: 0%
- Test A disease control rating [2, 5]: 0%

SMILES: OCc1ccc(OCC2(C(F)(F)F)OCCO2)cc1 [compound 178]
- Test B disease control rating [1, 4]: 0%
- Test A disease control rating [2, 5]: 0%

SMILES: CCOC(=O)c1ccnn1Cc1cc(C)cc(O/C=C(\OCC)C(F)(F)F)c1 [compound 462]
- Test B disease control rating [1, 3]: 0%
- Test A disease control rating [2, 3]: 0%

SMILES: CCO/C(=C\Oc1ccc(Cn2ncnc2C(=O)OC)cc1)C(F)(F)F [compound 122]
- Test B disease control rating [1, 4]: 0%
- Test A disease control rating [2, 5]: 0%

SMILES: O=C(OCC(F)(F)F)c1cnn(Cc2ccc(OCC3(C(F)(F)F)OCCO3)cc2)c1 [compound 134]
- Test B disease control rating [1, 4]: 32%
- Test A disease control rating [2, 5]: 89%

SMILES: CCO/C(=C\Oc1ccc(CN2CCC(C)(C)C2=O)cc1)C(F)(F)F [compound 225]
- Test B disease control rating [1, 4]: 0%
- Test A disease control rating [2, 5]: 0%

SMILES: O=C(OCc1ccc(Cl)c(Cl)c1)c1cnn(Cc2ccc(OCC(O)(O)C(F)(F)F)cc2)c1 [compound 49]
- Test B disease control rating [1, 4]: 86%
- Test A disease control rating [2, 5]: 0%

SMILES: CCOC(=O)c1cnn(Cc2ccc(CCC3(C(F)(F)F)OCCO3)cc2)c1 [compound 67]
- Test B disease control rating [1, 7]: 0%
- Test A disease control rating [2, 8]: 65%

SMILES: CCO/C(=C\Oc1ccc(S(C)(=O)=O)cc1)C(F)(F)F [compound 60]
- Test B disease control rating [1, 4]: 0%
- Test A disease control rating [2, 5]: 0%

SMILES: CC(C)CS(=O)(=O)NCc1ccc(OCC2(C(F)(F)F)OCCO2)cc1 [compound 76]
- Test B disease control rating [1, 4]: 0%
- Test A disease control rating [2, 5]: 0%
